Results published in patent EP1129112B1, “PEPTIDES CONTAINING A CHOLESTEROL RECOGNITION SEQUENCE AND THEIR USES” (Georgetown University, priority 1998, dated 1999).

Experiments:
isolated mitochondria = conditions: cited from earlier work
recombinant mPBR = biological target: T1, recombinant mPBR (Mus musculus, UniProt P50637); test: 3H-PK 11195 radioligand binding to IPTG-induced recombinant PBR in E. coli (Scatchard analysis); conditions: 3H-PK 11195 binding, IPTG-induced E. coli transfected with mouse PBR cDNA
T1 construct: inferred from vector pET15b with insertion at NdeI) (N); made in house; host or cells: Escherichia coli BL21(DE3), IPTG-induced; whole bacteria or bacterial membranes
Procedure: Binding specificity of the IPTG-induced PBR in E. coli was determined in binding studies where specific binding of ^3H-PK 11195 (1.0 nM) was measured in the presence of the indicated concentrations of the indicated ligands.
Radioligand binding assays- ^3H-1- (2-chlorophenyl)-N-methyl-N-(1-methyl-propyl)-3-isoquinolinecarboxamide (PK 11195) binding studies were performed as we previously described (Papadopoulos, V. et al. 1990, J. Biol. Chem. 265: 3772-3779; Garnier, M. et al. 1994, Mol. Pharm. 45:201-211). The dissociation constant (Kd) and the number of binding sites (Bmax) were determined by Scatchard plot analysis of the data using the LIGAND program (Munson, P. J. and Rodbard, D. 1980, Anal. Biochem. 107:220-239).

PBR = biological target: T2, PBR (Mus musculus, UniProt P50637); test: Ligand-induced release of 3H-cholesterol from membranes of IPTG-induced transformed bacteria; assay type: biochemical; conditions: Fig. 3F
T2 construct: inferred from vector pET15b with insertion at NdeI) (N); made in house; host or cells: Escherichia coli BL21(DE3), IPTG-induced; whole bacteria or bacterial membranes
Procedure: ^3H-Cholesterol uptake by E. coli cells was examined using the indicated concentrations of control or IPTG-treated transformed bacteria incubated in the presence of 6.7 nM ^3H-cholesterol (50.0 Ci/mmol) for 60 min at 37°C. Specific cholesterol uptake is defined as IPTG-induced minus basal values, E. coli protoplasts were prepared from cells grown in LB at 37°C to the logarithmic phase of growth and centrifuged at 10,000g for 5 min. The cells were washed twice in 10mM Tris-HCl buffer [pH8.0] and the pellet was resuspended in a solution containing 20%(w/w) sucrose and 0.1M Tris-HCl [pH8.0]. The cells were then suspended in 1ml of buffer per 10 OD450 and mixed. Within 1 min lysozyme was added from a 2mg/ml stock solution in distilled water to a final concentration of 100 ug/ml at 37°C, and stirring was continued for the next 12 min. The cell suspension was diluted 1:10 with 0.1M Na2EDTA prewarmed to 37°C. Continuous stirring and slow dilution over 2.5 min prevented cell lysis. More than 99% of the cells became spherical within 10 minutes (Weiss, R. L. 1978, Meth. Cell Biol. 20:141-147).

ODN: octadecaneuropeptide (DBI33-50) (KQATVGDINTERPGMLDF; Octadecaneuropeptide; UniProt P07108 33-50, looked up, fragment)
ability to mimic the effect of DBI on mitochondrial steroidogenesis (isolated mitochondria): not

TTN: triakontatetrapeptide, naturally occurring processing product of DBI (KTKPSDEEMLFIYGHYKQATVGDINTERPGMLDF; Triakontatetraneuropeptide; UniProt P07108 17-50, looked up, fragment)
ability to mimic the effect of DBI on mitochondrial steroidogenesis (isolated mitochondria): able to mimic the effect of DBI

CCC(C)N(C)C(=O)c1cc2ccccc2c(-c2ccccc2Cl)n1 (centres unmarked) [PK 11195, 1-(2-chlorophenyl)-N-methyl-N-(1-methyl-propyl)-3-isoquinolinecarboxamide]
Bmax (recombinant mPBR): 0.23 pmol/mg protein
Kd (recombinant mPBR): 1.1 nM
release of cholesterol from cholesterol-loaded bacterial membranes (PBR): cholesterol was liberated from the membranes
